Reference: PubChem BioAssay AID248 (DTP/NCI, 2004)
Where “and” joins values, the source holds several entries; their conditions need not be identical. Equal values may be shown once. Inconclusive results and toxic doses are left out. Cut-off read from the data, not from the text of the source: active = T/C of 150% or more; inactive = T/C below 125%.

System: L1210 leukemia ip in BDF1 mice, survival T/C
Test: NCI In Vivo Anticancer Drug Screen. Data for tumor model L1210 Leukemia (intraperitoneal) in B6D2F1 (BDF1) mice
Conditions: endpoint: mean survival time, higher = longer survival
Method in brief: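 Tumor was transplanted into mice, which were then dosed with test compound or vehicle alone. Survival was recorded for each group, and the treated figure was expressed relative to the control figure.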

[1] = dose: 75.0 mg/kg/injection, schedule: Q01DX001 (ip), vehicle: saline
[2] = dose: 150.0 mg/kg/injection, schedule: Q01DX001 (ip), vehicle: saline
[3] = dose: 100.0 mg/kg/injection, schedule: Q01DX009 (ip), vehicle: Klucel (hydroxypropylcellulose) (HPC)
[4] = dose: 100.0 mg/kg/injection, schedule: Q04DX003 (ip), vehicle: Klucel (hydroxypropylcellulose) (HPC)
[5] = dose: 200.0 mg/kg/injection, schedule: Q01DX009 (ip), vehicle: Klucel (hydroxypropylcellulose) (HPC)
[6] = dose: 200.0 mg/kg/injection, schedule: Q04DX003 (ip), vehicle: Klucel (hydroxypropylcellulose) (HPC)
[7] = dose: 400.0 mg/kg/injection, schedule: Q01DX009 (ip), vehicle: Klucel (hydroxypropylcellulose) (HPC)
[8] = dose: 400.0 mg/kg/injection, schedule: Q04DX003 (ip), vehicle: Klucel (hydroxypropylcellulose) (HPC)
[9] = dose: 100.0 mg/kg/injection, schedule: Q01DX001 (ip), vehicle: saline with Tween-80
[10] = dose: 200.0 mg/kg/injection, schedule: Q01DX001 (ip), vehicle: saline with Tween-80
[11] = dose: 400.0 mg/kg/injection, schedule: Q01DX001 (ip), vehicle: saline with Tween-80
[12] = dose: 100.0 mg/kg/injection, schedule: Q04DX002 (ip), vehicle: Klucel (hydroxypropylcellulose) (HPC)
[13] = dose: 200.0 mg/kg/injection, schedule: Q04DX002 (ip), vehicle: Klucel (hydroxypropylcellulose) (HPC)
[14] = dose: 100.0 mg/kg/injection, schedule: Q04DX003 (ip), vehicle: saline with Tween-80
[15] = dose: 100.0 mg/kg/injection, schedule: Q04DX002 (ip), vehicle: saline with Tween-80

Measured: T/C

CCOc1ccc2c(ccc(/C=C\c3ccc(O)c4ccccc34)[n+]2C)c1
inactive: dose: 15.0 mg/kg/injection, schedule: Q01DX001 (ip), vehicle: saline 96 % of control | dose: 30.0 mg/kg/injection, schedule: Q01DX001 (ip), vehicle: saline 96 % of control | dose: 60.0 mg/kg/injection, schedule: Q01DX001 (ip), vehicle: saline 97 % of control | [1] 106 % of control | [2] 101 % of control

COc1ccc(Cl)cc1NC(=O)CC(C)=O
inactive: [3] 101 % of control | [4] 97 % of control | [5] 101 % of control | [6] 99 % of control | [7] 95 % of control | [8] 94 % of control

CSc1nc(N)cc(NCc2ccccc2)n1
inactive: [9] 93 % of control | [10] 95 % of control | [11] 100 % of control

OC(CCl)CN1CC[N+]2(CC1)CC[N+]1(CCN(CC(O)CCl)CC1)CC2 (stereo not drawn)
inactive: dose: 37.5 mg/kg/injection, schedule: Q01DX009 (ip), vehicle: water 100 % of control | dose: 59.0 mg/kg/injection, schedule: Q01DX009 (ip), vehicle: water 105 % of control | dose: 75.0 mg/kg/injection, schedule: Q01DX009 (ip), vehicle: water 101 % of control | dose: 88.0 mg/kg/injection, schedule: Q01DX009 (ip), vehicle: water 104 % of control | dose: 132.0 mg/kg/injection, schedule: Q01DX009 (ip), vehicle: water 107 % of control | dose: 150.0 mg/kg/injection, schedule: Q01DX009 (ip), vehicle: water 114 % of control | dose: 200.0 mg/kg/injection, schedule: Q01DX009 (ip), vehicle: water 102 % of control | dose: 300.0 mg/kg/injection, schedule: Q01DX009 (ip), vehicle: water 93 % of control and 95 % of control

C[CH2][Sn]([CH2]C)([CH2]C)[O]C(=O)CO
inactive: dose: 3.12 mg/kg/injection, schedule: Q04DX002 (ip), vehicle: saline 93 % of control | dose: 6.25 mg/kg/injection, schedule: Q04DX002 (ip), vehicle: saline 117 % of control | dose: 12.5 mg/kg/injection, schedule: Q04DX002 (ip), vehicle: saline 104 % of control

O=C1c2ccccc2C(=O)c2cc3cc(Cl)ccc3cc21
inactive: [4] 90 % of control | [6] 87 % of control | [8] 95 % of control

O=C(COc1ccccc1)Nc1ccc([N+](=O)[O-])cc1O
inactive: [4] 97 % of control | [6] 100 % of control | [8] 103 % of control

CC(C)=CCC1(CC=C(C)C)C(=O)N(c2ccccc2)N(c2ccccc2)C1=O
inactive: dose: 50.0 mg/kg/injection, schedule: Q04DX002 (ip), vehicle: Klucel (hydroxypropylcellulose) (HPC) 93 % of control | [3] 93 % of control | [12] 101 % of control | [5] 98 % of control | [13] 97 % of control | [7] 90 % of control

COC(=O)CCCCC(=O)OC
inactive: dose: 100.0 mg/kg/injection, schedule: Q01DX009 (ip), vehicle: saline with Tween-80 103 % of control | dose: 200.0 mg/kg/injection, schedule: Q01DX009 (ip), vehicle: saline with Tween-80 102 % of control | dose: 400.0 mg/kg/injection, schedule: Q01DX009 (ip), vehicle: saline with Tween-80 102 % of control

CCCCCCCCCCCCOC(=O)NCCCl
inactive: [9] 103 % of control | [10] 102 % of control | [11] 103 % of control

COc1ccc(OC)c(/C=C/c2ccnc3ccccc23)c1
inactive: dose: 50.0 mg/kg/injection, schedule: Q01DX001 (ip), vehicle: carboxymethylcellulose (CMC) 93 % of control | dose: 100.0 mg/kg/injection, schedule: Q01DX001 (ip), vehicle: carboxymethylcellulose (CMC) 96 % of control | dose: 200.0 mg/kg/injection, schedule: Q01DX001 (ip), vehicle: carboxymethylcellulose (CMC) 91 % of control | dose: 400.0 mg/kg/injection, schedule: Q01DX001 (ip), vehicle: carboxymethylcellulose (CMC) 87 % of control

Cc1ccc(Nc2ccc(Nc3ccc(CCO)cc3)c3c2C(=O)c2ccccc2C3=O)cc1
inactive: [3] 96 % of control | [5] 100 % of control | [7] 89 % of control

O=C(NC(=S)Nc1ccc([N+](=O)[O-])cc1Cl)c1ccccc1F
inactive: [12] 91 % of control | [13] 105 % of control | dose: 400.0 mg/kg/injection, schedule: Q04DX002 (ip), vehicle: Klucel (hydroxypropylcellulose) (HPC) 105 % of control

CNC(=O)NC(C)=C(C#N)C#N
inactive: [1] 94 % of control | [2] 111 % of control

CC(N)COCc1ccccc1 (stereo not drawn)
inactive: dose: 25.0 mg/kg/injection, schedule: Q01DX009 (ip), vehicle: saline 97 % of control | dose: 25.0 mg/kg/injection, schedule: Q04DX003 (ip), vehicle: saline with Tween-80 97 % of control | dose: 50.0 mg/kg/injection, schedule: Q01DX009 (ip), vehicle: saline 97 % of control | dose: 50.0 mg/kg/injection, schedule: Q04DX003 (ip), vehicle: saline with Tween-80 119 % of control | [14] 97 % of control and 88 % of control

Cn1cc([N+](=O)[O-])c2ccccc2c1=O
inactive: [4] 109 % of control | [6] 120 % of control

CCC(CCC(C)C1CCC2C3CC=C4CC(OC(=O)Nc5ccc(Cl)cc5)CCC4(C)C3CCC12C)C(C)C (stereo not drawn)
inactive: [15] 91 % of control | dose: 200.0 mg/kg/injection, schedule: Q04DX002 (ip), vehicle: saline with Tween-80 97 % of control | dose: 400.0 mg/kg/injection, schedule: Q04DX002 (ip), vehicle: saline with Tween-80 94 % of control

O=C(CC(CC(=O)c1ccccc1)c1ccco1)c1ccccc1
inactive: [3] 90 % of control | [4] 94 % of control | [5] 94 % of control | [6] 101 % of control | [7] 86 % of control | [8] 92 % of control

O=C1NC(=O)/C(=C\c2ccc(OCc3ccccc3)c(OCc3ccccc3)c2)N1
inactive: [9] 88 % of control | [11] 96 % of control

Nn1c2ccccc2c2ccccc21
inactive: dose: 50.0 mg/kg/injection, schedule: Q01DX009 (ip), vehicle: Klucel (hydroxypropylcellulose) (HPC) 103 % of control | dose: 75.0 mg/kg/injection, schedule: Q01DX001 (ip), vehicle: carboxymethylcellulose (CMC) 101 % of control | [3] 103 % of control | dose: 150.0 mg/kg/injection, schedule: Q01DX001 (ip), vehicle: carboxymethylcellulose (CMC) 104 % of control | [5] 92 % of control | dose: 300.0 mg/kg/injection, schedule: Q01DX001 (ip), vehicle: carboxymethylcellulose (CMC) 96 % of control

O=C1c2ccccc2C(=O)c2c3c(cc(NCCNCCO)c21)N(CCO)CCN3
inactive: dose: 25.0 mg/kg/injection, schedule: Q01DX009 (ip), vehicle: DMSO 119 % of control | dose: 50.0 mg/kg/injection, schedule: Q01DX009 (ip), vehicle: DMSO 121 % of control | dose: 200.0 mg/kg/injection, schedule: Q01DX009 (ip), vehicle: DMSO 122 % of control

Nc1nc(N)c(N=Nc2ccc(C(=O)O)cc2)c(=O)[nH]1
inactive: dose: 100.0 mg/kg/injection, schedule: Q01DX001 (ip), vehicle: saline 105 % of control | dose: 200.0 mg/kg/injection, schedule: Q01DX001 (ip), vehicle: saline 106 % of control

CC(O)COCCOCCO (stereo not drawn)
inactive: dose: 100.0 mg/kg/injection, schedule: Q04DX003 (ip), vehicle: saline 96 % of control | dose: 200.0 mg/kg/injection, schedule: Q04DX003 (ip), vehicle: saline 99 % of control | dose: 400.0 mg/kg/injection, schedule: Q04DX003 (ip), vehicle: saline 94 % of control

CC1(C)OC2OC(COC(=O)c3ccccc3)C(OC(=O)Nc3ccccc3)C2O1 (stereo not drawn)
inactive: [14] 93 % of control | dose: 200.0 mg/kg/injection, schedule: Q04DX003 (ip), vehicle: saline with Tween-80 98 % of control | dose: 400.0 mg/kg/injection, schedule: Q04DX003 (ip), vehicle: saline with Tween-80 97 % of control

COc1cc(/C=C2\CCOC2=O)cc(/C=C2\CCOC2=O)c1O
inactive: [15] 89 % of control

CC(F)C(Br)C(=O)O (stereo not drawn)
inactive: dose: 100.0 mg/kg/injection, schedule: Q04DX002 (ip), vehicle: saline 90 % of control | dose: 200.0 mg/kg/injection, schedule: Q04DX002 (ip), vehicle: saline 90 % of control
